This is an account of results in patent US5502242A, “Propiolate ester compound an acaricide containing the same as an active ingredient and an acaricidal method” (Sumitomo Chemical Company, Limited, priority 1993, dated 1996).

SMILES strings stand for the structures.

Common to all, as to type: in vivo
Test [1] deals with Tyrophagus putrescentiae. Nature of the test: Activity against Tyrophagus putrescentiae (treated filter paper, Biological Test Example 1). The following applies: 24 h, 0.8 g/m^2 on filter paper, after one day. The source says: (§1) A piece of filter paper (diameter: 4 cm) was impregnated uniformly with an acetone solution of the present compound so that the amount of the impregnated compound was 0.8 g/m^2 after being air-dried. Approximately twenty heads of mites (Tyrophagus putrescentiae, Dermatophagoides farinae Hughes and Dermatophagoides pteronyssinuis) were put on the surface of the treated filter paper. An adhesive substance was applied on the circumference of the filter paper for preventing escape. After one day, the mortality was examined. The results for Tyrophagus putrescentiae, Dermatophagoides farinae Hughes and Dermatophagoides pteronyssinus are shown in Table 3, Table 4, and Table 5, respectively.

Test [2] deals with Dermatophagoides farinae Hughes. In words: Activity against Dermatophagoides farinae Hughes (treated filter paper, Biological Test Example 1). The following applies: 24 h, 0.8 g/m^2 on filter paper, after one day.
Text: as §1

The test system of test [3] is Dermatophagoides pteronyssinus. Nature of the test: Activity against Dermatophagoides pteronyssinus (treated filter paper, Biological Test Example 1). Particulars: 24 h, 0.8 g/m^2 on filter paper, after one day.
Text: as §1

Test [4] relates to Dermatophagoides pteronyssinus. Nature of the test: Residual activity against Dermatophagoides pteronyssinus (treated filter paper, Biological Test Example 2). The following applies: 24 h, 0.8 g/m^2 on filter paper, mites put on seven days after treatment, mortality after one day. The source says:
A piece of filter paper (diameter: 4 cm) was impregnated uniformly with an acetone solution of the compound sample so that the amount of the compound was 0.8 g/m^2 after being air-dried. After seven days, approximately twenty heads of mites (Dermatophagoides pteronyssinus) were put on the surface of the treated filter paper. An adhesive substance was applied on the circumference of the filter paper for preventing escape. After one day, the mortality was examined.

Test [5] deals with Tyrophagus putrescentiae. In words: Fumigating activity against Tyrophagus putrescentiae (heated porous ceramic plate in peat grady chamber, Biological Test Example 3). The following applies: 24 h, 55 mg/m^3, ceramic plate heated at 175° C., after twenty-four hours. The source says: A piece of filter paper (diameter: 4 cm) was placed in an aluminum plate and an adhesive substance was applied on the circumference of the filter paper for preventing escape. Fifty to a hundred heads of mites (Tyrophagus putrescentiae) were put with little feed on the filter paper. Three sets of such filter paper with mites were placed on three corners (approximately 30 cm from the wall) in a floor of a peat grady chamber (1.8 m ×1.8 m ×1.8 m). A porous ceramic plate (4 cm ×4 cm ×1.2 cm) impregnated with an acetone solution of the present compound (concentration: 55 mg/m^3) was heated at 175° C. with an electric heater placed on the center of the floor of the chamber. After twenty-four hours, the mortality was examined.

The mortality is the share of the test organisms that died. The low end stands for more survivors, the high end for fewer survivors. Regarding `C#CC(=O)OCCCCCc1ccccc1` [Compound 1, 5-phenylpentyl propiolate], the mortality at 0.8 g/m2 is 100% in the test on Tyrophagus putrescentiae [1], 100% in test [2], 100% in test [3] and 95% in test [4]. The molecule also had a mortality at 55 mg/m3 with Tyrophagus putrescentiae [5] of 76%.

In the case of `C#CC(=O)OCCCCCCc1ccccc1` [Compound 2, 6-phenylhexyl propiolate], the mortality at 0.8 g/m2 (with Tyrophagus putrescentiae [1]; in test [2]; in test [3]; in test [4]) was 100% each time. In addition, the mortality at 55 mg/m3 with Tyrophagus putrescentiae [5] was determined as 73%.

As to `C#CC(=O)OCCCCCCCc1ccccc1` [Compound 3, 7-phenylheptyl propiolate], the mortality at 0.8 g/m2 (in the test on Tyrophagus putrescentiae [1]; in test [2]; in test [3]; in test [4]) was 100% each time. In the test with Tyrophagus putrescentiae [5], this molecule displayed a mortality at 55 mg/m3 of 96%.

Consider `C#CC(=O)OCCCCCCCCc1ccccc1` [Compound 4], for which the mortality at 0.8 g/m2 (in the test with Tyrophagus putrescentiae [1]; in test [2]; in test [3]; in test [4]) was 100% in each case.

In the case of `C#CC(=O)OCCCCCCCCCc1ccccc1` [Compound 5], the mortality at 0.8 g/m2 (with Tyrophagus putrescentiae [1]; in test [2]; in test [3]; in test [4]) was 100% in each case.

Turning to `C#CC(=O)OCCCOc1ccccc1` [Compound 6], the mortality at 0.8 g/m2 (with Tyrophagus putrescentiae [1]; in test [2]; in test [3]; in test [4]) was 100% in each case.

For the molecule `C#CC(=O)OCCCCOc1ccccc1` [Compound 7], the mortality at 0.8 g/m2 (in the test with Tyrophagus putrescentiae [1]; in test [2]; in test [3]; in test [4]) was 100% each time.

On to `C#CC(=O)OCCCCCOc1ccccc1` [Compound 8], for which the mortality at 0.8 g/m2 (in the test on Tyrophagus putrescentiae [1]; in test [2]; in test [3]; in test [4]) was 100% in each case.

With `C#CC(=O)OCCCOc1ccc(C)cc1C` [Compound 9], the mortality at 0.8 g/m2 (in the test with Tyrophagus putrescentiae [1]; in test [2]; in test [3]; in test [4]) was 100% each time.

For `C#CC(=O)OCCCCOc1ccccc1C` [Compound 10, 4-(2-methylphenoxy)butyl propiolate], the mortality at 0.8 g/m2 (in the test with Tyrophagus putrescentiae [1]; in test [2]; in test [3]; in test [4]) was 100% each time.

Take `C#CC(=O)OCCCCOc1ccc(C)cc1` [Compound 11, 4-(4-methylphenoxy)butyl propiolate]: the mortality at 0.8 g/m2 (in the test with Tyrophagus putrescentiae [1]; in test [2]; in test [3]; in test [4]) was 100% in each case. This molecule also came in with a mortality at 55 mg/m3 in the test on Tyrophagus putrescentiae [5] of 79%.

Regarding `C#CC(=O)OCCCCOc1ccc(C)cc1C` [Compound 12], the mortality at 0.8 g/m2 (in the test with Tyrophagus putrescentiae [1]; in test [2]; in test [3]; in test [4]) was 100% throughout.

`C#CC(=O)OCCCCOc1c(C)cccc1C` [Compound 13]: the mortality at 0.8 g/m2 in the test with Tyrophagus putrescentiae [1] came to 100%; in test [2], 100%; in test [3] it was 100%; in test [4], 92%.

As for `C#CC(=O)OCCCCCOc1c(C)cccc1C` [Compound 14], the mortality at 0.8 g/m2 (in the test on Tyrophagus putrescentiae [1]; in test [2]; in test [3]; in test [4]) was 100% in each case.

With `C#CC(=O)OCCCCOc1c(C(C)C)cccc1C(C)C` [Compound 15], the mortality at 0.8 g/m2 is 100% in the test with Tyrophagus putrescentiae [1], 100% in test [2], 100% in test [3] and 95% in test [4].

On to `C#CC(=O)OCCOCc1ccccc1` [Compound 16, 2-benzyloxyethyl propiolate], for which the mortality at 0.8 g/m2 with Tyrophagus putrescentiae [1] was determined as 100%; in test [2] it was 100%; in test [3], 100%; in test [4], 83%.

As for `C#CC(=O)OCCCOCc1ccccc1` [Compound 17], the mortality at 0.8 g/m2 (with Tyrophagus putrescentiae [1]; in test [2]; in test [3]; in test [4]) was 100% in each case.

As for `C#CC(=O)OCCOCc1ccc(C)cc1` [Compound 18], the mortality at 0.8 g/m2 (in the test with Tyrophagus putrescentiae [1]; in test [2]; in test [3]; in test [4]) was 100% each time.

As to `C#CC(=O)OCCCCCCOc1ccccc1` [Compound 19], the mortality at 0.8 g/m2 (in the test with Tyrophagus putrescentiae [1]; in test [2]; in test [4]) was 100% throughout.

As for `C#CC(=O)OCCCOc1ccc(CC)cc1` [Compound 20], the mortality at 0.8 g/m2 (in the test with Tyrophagus putrescentiae [1]; in test [2]; in test [4]) was 100% each time.

Turning to `C#CC(=O)OCCCCCOc1ccc(C)cc1` [Compound 21], the mortality at 0.8 g/m2 (in the test with Tyrophagus putrescentiae [1]; in test [2]; in test [4]) was 100% throughout.

On to `C#CC(=O)OCCCCOc1ccc(CC)cc1` [Compound 22], for which the figures for the mortality at 0.8 g/m2 (with Tyrophagus putrescentiae [1]; in test [2]; in test [4]) were 96%, 100% and 100%, respectively.

Take `C#CC(=O)OCC(C)COc1ccccc1` (centres unmarked) [Compound 23]: the mortality at 0.8 g/m2 (in the test on Tyrophagus putrescentiae [1]; in test [2]; in test [4]) was 100% each time.

`C#CC(=O)OCC(C)COc1ccc(C)cc1` (centres unmarked) [Compound 24]: the mortality at 0.8 g/m2 (in the test on Tyrophagus putrescentiae [1]; in test [2]; in test [4]) was 100% each time.

Take `C#CC(=O)OCCC(C)COc1ccccc1` (centres unmarked) [Compound 25]: the mortality at 0.8 g/m2 (with Tyrophagus putrescentiae [1]; in test [2]; in test [4]) was 100% each time.

`C#CC(=O)OCCC(C)COc1ccc(C)cc1` (centres unmarked) [Compound 26]: the values for the mortality at 0.8 g/m2 (with Tyrophagus putrescentiae [1]; in test [2]; in test [4]) were 100%, 96% and 94%, respectively.

As to `C#CC(=O)OCCCOc1c(C)cccc1C` [Compound 27], the mortality at 0.8 g/m2 is 100% in the test with Tyrophagus putrescentiae [1], 86% in test [2] and 100% in test [4].

In the case of `C#CC(=O)OCCOCc1ccc(CC)cc1` [Compound 28], the mortality at 0.8 g/m2 in the test with Tyrophagus putrescentiae [1] came out at 100%; in test [2] it was 100%; in test [4], 97%.

Consider `C#CC(=O)OCC(C)OCc1ccccc1` (centres unmarked) [Compound 29], for which the mortality at 0.8 g/m2 in the test on Tyrophagus putrescentiae [1] turned out to be 100%; in test [2], 100%; in test [4] it was 82%.

`O=C(Oc1ccccc1)c1ccccc1O` [Phenyl salicylate, reference compound] yielded a mortality at 55 mg/m3 with Tyrophagus putrescentiae [5] of 28%.
